Results: ChEMBL document CHEMBL1275409, “Antimicrobial-resistant pathogens in intensive care units in Canada: results of the Canadian National Intensive Care Unit (CAN-ICU) study, 2005-2006” (2008)

Tests used:
Assay type in all cases: functional
[1] = test system: Staphylococcus epidermidis; assay: Antimicrobial activity against methicillin-susceptible Staphylococcus epidermidis assessed as resistant isolates by broth microdilution method
[2] = test system: Staphylococcus aureus; assay: Antimicrobial activity against methicillin-resistant Staphylococcus aureus isolated from ICU patient wound assessed as resistant isolates by broth microdilution method
[3] = test system: Staphylococcus aureus; assay: Antimicrobial activity against methicillin-susceptible Staphylococcus aureus isolated from ICU patient urine assessed as resistant isolates by broth microdilution method
[4] = test system: Enterococcus sp.; assay: Antimicrobial activity against vancomycin-resistant Enterococcus sp. isolated from ICU patient wound assessed as resistant isolates by broth microdilution method
[5] = test system: Staphylococcus aureus; assay: Antimicrobial activity against methicillin-susceptible Staphylococcus aureus isolated from ICU patient respiratory tract assessed as resistant isolates by broth microdilution method
[6] = test system: Staphylococcus aureus; assay: Antimicrobial activity against methicillin-resistant Staphylococcus aureus isolated from ICU patient blood assessed as resistant isolates by broth microdilution method
[7] = test system: Staphylococcus epidermidis; assay: Antimicrobial activity against methicillin-resistant Staphylococcus epidermidis isolated from ICU patient urine assessed as resistant isolates by broth microdilution method
[8] = test system: Staphylococcus epidermidis; assay: Antimicrobial activity against methicillin-resistant Staphylococcus epidermidis isolated from ICU patient wound assessed as resistant isolates by broth microdilution method
[9] = test system: Staphylococcus aureus; assay: Antimicrobial activity against methicillin-susceptible Staphylococcus aureus isolated from ICU patient wound assessed as resistant isolates by broth microdilution method
[10] = test system: Staphylococcus epidermidis; assay: Antimicrobial activity against methicillin-resistant Staphylococcus epidermidis assessed as resistant isolates by broth microdilution method
[11] = test system: Enterococcus sp.; assay: Antimicrobial activity against vancomycin-resistant Enterococcus sp. isolated from ICU patient blood assessed as resistant isolates by broth microdilution method
[12] = test system: Staphylococcus epidermidis; assay: Antimicrobial activity against methicillin-susceptible Staphylococcus epidermidis isolated from ICU patient blood assessed as resistant isolates by broth microdilution method
[13] = test system: Staphylococcus epidermidis; assay: Antimicrobial activity against methicillin-susceptible Staphylococcus epidermidis isolated from ICU patient wound assessed as resistant isolates by broth microdilution method
[14] = test system: Enterococcus sp.; assay: Antimicrobial activity against vancomycin-resistant Enterococcus sp. isolated from ICU patient urine assessed as resistant isolates by broth microdilution method
[15] = test system: Enterococcus sp.; assay: Antimicrobial activity against vancomycin-resistant Enterococcus sp. assessed as resistant isolates by broth microdilution method
[16] = test system: Staphylococcus epidermidis; assay: Antimicrobial activity against methicillin-susceptible Staphylococcus epidermidis isolated from ICU patient urine assessed as resistant isolates by broth microdilution method
[17] = test system: Staphylococcus aureus; assay: Antimicrobial activity against methicillin-resistant Staphylococcus aureus assessed as resistant isolates by broth microdilution method
[18] = test system: Staphylococcus aureus; assay: Antimicrobial activity against methicillin-resistant Staphylococcus aureus isolated from ICU patient urine assessed as resistant isolates by broth microdilution method
[19] = test system: Staphylococcus aureus; assay: Antimicrobial activity against methicillin-susceptible Staphylococcus aureus assessed as resistant isolates by broth microdilution method
[20] = test system: Enterococcus sp.; assay: Antimicrobial activity against vancomycin-resistant Enterococcus sp. isolated from ICU patient respiratory tract assessed as resistant isolates by broth microdilution method
[21] = test system: Staphylococcus epidermidis; assay: Antimicrobial activity against methicillin-resistant Staphylococcus epidermidis isolated from ICU patient blood assessed as resistant isolates by broth microdilution method
[22] = test system: Staphylococcus aureus; assay: Antimicrobial activity against methicillin-resistant Staphylococcus aureus isolated from ICU patient respiratory tract assessed as resistant isolates by broth microdilution method
[23] = test system: Staphylococcus aureus; assay: Antimicrobial activity against methicillin-susceptible Staphylococcus aureus isolated from ICU patient blood assessed as resistant isolates by broth microdilution method
[24] = test system: Streptococcus pneumoniae; assay: Antimicrobial activity against penicillin-resistant Streptococcus pneumoniae isolated from ICU patient blood assessed as resistant isolates by broth microdilution method
[25] = test system: Streptococcus pneumoniae; assay: Antimicrobial activity against penicillin-resistant Streptococcus pneumoniae isolated from ICU patient wound assessed as resistant isolates by broth microdilution method
[26] = test system: Streptococcus pneumoniae; assay: Antimicrobial activity against penicillin-resistant Streptococcus pneumoniae assessed as resistant isolates by broth microdilution method
[27] = test system: Streptococcus pneumoniae; assay: Antimicrobial activity against penicillin-resistant Streptococcus pneumoniae isolated from ICU patient respiratory tract assessed as resistant isolates by broth microdilution method
[28] = test system: Pseudomonas aeruginosa; assay: Antimicrobial activity against carbapenem-resistant Pseudomonas aeruginosa isolated from ICU patient respiratory tract assessed as resistant isolates by broth microdilution method
[29] = test system: Escherichia coli; assay: Antimicrobial activity against CTX-M ESBL producing Escherichia coli assessed as resistant isolates by broth microdilution method
[30] = test system: Staphylococcus epidermidis; assay: Antimicrobial activity against methicillin-susceptible Staphylococcus epidermidis isolated from ICU patient respiratory tract assessed as resistant isolates by broth microdilution method
[31] = test system: Pseudomonas aeruginosa; assay: Antimicrobial activity against carbapenem-resistant Pseudomonas aeruginosa isolated from ICU patient wound assessed as resistant isolates by broth microdilution method
[32] = test system: Pseudomonas aeruginosa; assay: Antimicrobial activity against carbapenem-resistant Pseudomonas aeruginosa isolated from ICU patient urine assessed as resistant isolates by broth microdilution method
[33] = test system: Escherichia coli; assay: Antimicrobial activity against CTX-M ESBL producing Escherichia coli isolated from ICU patient respiratory tract assessed as resistant isolates by broth microdilution method
[34] = test system: Escherichia coli; assay: Antimicrobial activity against CTX-M ESBL producing Escherichia coli isolated from ICU patient blood assessed as resistant isolates by broth microdilution method
[35] = test system: Pseudomonas aeruginosa; assay: Antimicrobial activity against carbapenem-resistant Pseudomonas aeruginosa assessed as resistant isolates by broth microdilution method
[36] = test system: Escherichia coli; assay: Antimicrobial activity against CTX-M ESBL producing Escherichia coli isolated from ICU patient urine assessed as resistant isolates by broth microdilution method
[37] = test system: Pseudomonas aeruginosa; assay: Antimicrobial activity against carbapenem-resistant Pseudomonas aeruginosa isolated from ICU patient blood assessed as resistant isolates by broth microdilution method
[38] = test system: Escherichia coli; assay: Antimicrobial activity against CTX-M ESBL producing Escherichia coli isolated from ICU patient wound assessed as resistant isolates by broth microdilution method

Row | SMILES | Activity [1] | Activity [2] | Activity [3] | Activity [5] | Activity [6] | Activity [7] | Activity [8] | Activity [9] | Activity [10] | Activity [12] | Activity [13] | Activity [16] | Activity [17] | Activity [18] | Activity [19] | Activity [21] | Activity [22] | Activity [23] | Activity [24] | Activity [25] | also measured
1 | CCCCCCCCCC(=O)N[C@@H](Cc1c[nH]c2ccccc12)C(=O)N[C@H](CC(N)=O)C(=O)N[C@@H](CC(=O)O)C(=O)N[C@@H]1C(=O)NCC(=O)N[C@@H](CCCN)C(=O)N[C@@H](CC(=O)O)C(=O)N[C@H](C)C(=O)N[C@@H](CC(=O)O)C(=O)NCC(=O)N[C@H](CO)C(=O)N[C@@H]([C@H](C)CC(=O)O)C(=O)N[C@@H](CC(=O)c2ccccc2N)C(=O)O[C@@H]1C | 0% | 0% | 0% | 0% | 0% | 0% | 0% | 0% | 0% | 0% | 0% | 0% | 0% | 0% | 0% | 0% | 0% | 0% |  |  | Activity [4]: 0%; Activity [11]: 0%; Activity [14]: 0%; Activity [15]: 0%; Activity [20]: 0%
2 | COc1c(N2C[C@@H]3CCCN[C@@H]3C2)c(F)cc2c(=O)c(C(=O)O)cn(C3CC3)c12 [MOXIFLOXACIN] | 41.7% | 88.9% | 15% | 5.8% | 89.8% | 100% | 100% | 7.1% | 96% | 34.6% | 50% | 80% | 90.1% | 100% | 6.4% | 83.3% | 91.5% | 6.9% | 0% | 0% | Activity [26]: 1.3%; Activity [27]: 1.6%
3 | Cc1nnc(SCC2=C(C(=O)O)N3C(=O)[C@@H](NC(=O)Cn4cnnn4)[C@H]3SC2)s1 [CEFAZOLIN] | 0% | 100% | 0% | 0% | 100% | 100% | 100% | 0% | 100% | 0% | 0% | 0% | 100% | 100% | 0% | 100% | 100% | 0% |  |  | Activity [28]: 4.9%; Activity [29]: 20.1%; Activity [30]: 0%; Activity [31]: 7.7%; Activity [32]: 7.8%; Activity [33]: 11.5%; Activity [34]: 21.9%; Activity [35]: 6.2%; Activity [36]: 25.8%; Activity [37]: 7.7%; Activity [38]: 8.6%
4 | CCC[C@@H]1C[C@@H](C(=O)N[C@@H]([C@H]2O[C@H](SC)[C@H](O)[C@@H](O)[C@H]2O)[C@H](C)Cl)N(C)C1 [CLINDAMYCIN] | 54.8% | 81.5% | 10% | 4.3% | 79.6% | 100% | 88.2% | 3.5% | 92% | 43.6% | 70.8% | 100% | 76.1% | 100% | 4.4% | 100% | 72.9% | 4.6% | 2.6% | 0% | Activity [26]: 5.6%; Activity [27]: 6.4%
5 | CC(=O)NC[C@H]1CN(c2ccc(N3CCOCC3)c(F)c2)C(=O)O1 [LINEZOLID] | 0% | 0% | 0% | 0% | 0% | 0% | 0% | 0% | 0% | 0% | 0% | 0% | 0% | 0% | 0% | 0% | 0% | 0% | 0% | 0% | Activity [4]: 1.6%; Activity [11]: 2.9%; Activity [14]: 1.5%; Activity [26]: 0%; Activity [15]: 1.8%; Activity [27]: 0%; Activity [20]: 0%
6 | CC[C@H]1OC(=O)[C@H](C)[C@@H](O[C@H]2C[C@@](C)(OC)[C@@H](O)[C@H](C)O2)[C@H](C)[C@@H](O[C@@H]2O[C@H](C)C[C@H](N(C)C)[C@H]2O)[C@](C)(OC)C[C@@H](C)C(=O)[C@H](C)[C@@H](O)[C@]1(C)O [CLARITHROMYCIN] | 77.4% |  | 30% | 19.5% |  | 100% | 94.1% | 23.9% | 96% | 74.6% | 79.2% | 100% |  | 100% | 20.1% | 100% |  | 16.1% | 13.2% | 16.7% | Activity [4]: 60.3%; Activity [11]: 68.6%; Activity [14]: 70.1%; Activity [26]: 15.9%; Activity [15]: 65.9%; Activity [27]: 16.4%; Activity [20]: 61.5%
